# In PubChem BioAssay (NCI):
#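 Briefly, cells in 96-well plates were exposed to five compound concentrations for 48 h, and endpoints were estimated by linear interpolation. At the TGI there is no net growth.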
# Experiments:
# Test in all cases: DTP human tumour cell line panel, 48 h
# OVCAR-8 ovarian = tested on: OVCAR-8 ovarian
# OVCAR-5 ovarian = tested on: OVCAR-5 ovarian
# OVCAR-4 ovarian = tested on: OVCAR-4 ovarian
# SR leukemia = tested on: SR leukemia
# NCI-H226 lung = tested on: NCI-H226 lung
# HS 578T breast = tested on: HS 578T breast
# HOP-62 NSCLC = tested on: HOP-62 NSCLC
# SF-539 CNS = tested on: SF-539 CNS
# NCI-H522 lung = tested on: NCI-H522 lung
# UO-31 renal = tested on: UO-31 renal
# T-47D breast = tested on: T-47D breast
# EKVX NSCLC = tested on: EKVX NSCLC
# MOLT-4 leukemia = tested on: MOLT-4 leukemia
# MDA-N = tested on: MDA-N
# SN12C renal = tested on: SN12C renal
# MDA-MB-435 = tested on: MDA-MB-435
# DU-145 prostate = tested on: DU-145 prostate
# SF-268 CNS = tested on: SF-268 CNS
# NCI-H460 lung = tested on: NCI-H460 lung
# CCRF-CEM leukemia = tested on: CCRF-CEM leukemia
SMILES,TGI (OVCAR-8 ovarian) [µM],TGI (OVCAR-5 ovarian) [µM],TGI (OVCAR-4 ovarian) [µM],TGI (SR leukemia) [µM],TGI (NCI-H226 lung) [µM],TGI (HS 578T breast) [µM],TGI (HOP-62 NSCLC) [µM],TGI (SF-539 CNS) [µM],TGI (NCI-H522 lung) [µM],TGI (UO-31 renal) [µM],TGI (T-47D breast) [µM],TGI (EKVX NSCLC) [µM],TGI (MOLT-4 leukemia) [µM],TGI (MDA-N) [µM],TGI (SN12C renal) [µM],TGI (MDA-MB-435) [µM],TGI (DU-145 prostate) [µM],TGI (SF-268 CNS) [µM],TGI (NCI-H460 lung) [µM],TGI (CCRF-CEM leukemia) [µM]
C=CCN1C[C@@H](C)N([C@@H](c2ccccc2)c2ccc(C(=O)N(CC)CC)cc2)C[C@@H]1C,> 100,> 100,> 100,> 100,> 100,> 100,> 100,> 100,> 100,> 100,> 100,> 100,> 100,> 100,> 100,> 100,> 100,> 100,–,–
CC(C)N(C(=O)c1ccc(NCc2cc(O)ccc2O)cc1)C(C)C,35.4,43.8,28.3,> 100,45.3,78.7,69.4,34,–,21.3,40.7,28.6,> 100,42,49,40.9,30,36.2,34.6,> 100
Cc1ccc(C(=O)c2[nH]c(Nc3ccc(Cl)cc3)c(C(=S)Nc3ccccc3)c2N)cc1,18.1,40.9,4.32,10.7,43.4,–,15.3,17.7,23.6,23,> 100,19,32.6,20.6,27.4,19.7,24.8,23.3,15.4,> 100
COC(=O)c1cn(CCCCO)nn1,> 100,–,> 100,> 100,> 100,> 100,> 100,> 100,–,> 100,> 100,> 100,> 100,> 100,> 100,> 100,> 100,> 100,> 100,> 100
Cc1ccc(S(=O)(=O)c2ccsc2NC(=O)c2ccccc2)cc1,98.5,> 100,73.6,> 100,> 100,76.2,45,> 100,> 100,> 100,> 100,> 100,> 100,> 100,> 100,> 100,> 100,> 82.5,> 100,–
COc1cc2c(cc1O)-c1c(OC)c(O)cc3c1C(C2)N(C)CC3 (stereo unspecified),> 100,> 100,> 100,> 100,> 100,> 100,–,> 100,> 100,> 100,> 100,> 100,> 100,> 100,> 100,> 100,> 100,> 100,> 100,> 100
Cc1cn(CCCCOC(=O)NC(CCCNC(N)=O)C(=O)O)c(=O)[nH]c1=O (stereo unspecified),> 100,> 100,> 100,> 100,> 100,> 100,> 100,> 100,–,> 100,> 100,> 100,> 100,> 100,> 100,> 100,> 100,> 100,> 100,> 100
Cc1ccc(Cc2nn(C)c(=O)n2-n2cccc2)cc1,> 100,> 100,> 100,> 100,> 100,> 100,> 100,–,> 100,> 100,> 100,> 100,> 100,> 100,> 100,> 100,> 100,> 100,> 100,> 100
COC(=O)C(CCSc1ccccc1)C(=O)OC,> 100,> 100,> 100,> 100,> 100,> 100,> 100,> 100,> 100,> 100,> 100,> 100,> 100,> 100,> 100,> 100,–,–,> 100,> 100
Cc1cn(C2CC(N=[N+]=[N-])C(CO)O2)c(=O)n(CCCCO)c1=O (stereo unspecified),> 100,> 100,> 100,–,> 100,> 100,> 100,> 100,> 100,> 100,> 100,> 100,> 100,> 100,> 100,> 100,> 100,> 100,> 100,> 100
COc1ccc(N2C(=O)C3c4[nH]c5cc(Cl)ccc5c4C4CCC(C(C)(C)C)CC4C3C2=O)cc1 (stereo unspecified),> 100,–,> 100,43.6,> 100,> 100,> 100,> 100,> 100,> 100,> 100,> 100,> 100,> 100,> 100,> 100,> 100,> 100,> 100,> 100
COC1CC(n2ccc(=O)[nH]c2=O)OC1CO (stereo unspecified),> 100,> 100,> 100,> 100,> 100,–,> 100,> 100,> 100,> 100,> 100,> 100,> 100,> 100,> 100,> 100,> 100,> 100,> 100,> 100
Cc1cc(S(=O)(=O)Nc2nc(N)nc(N(C)C)n2)c(SC(C(=O)O)c2ccccc2)cc1Cl (stereo unspecified),> 10,> 10,> 10,> 10,> 10,> 10,> 10,> 10,> 10,> 10,> 10,> 10,> 10,> 10,> 10,–,> 10,> 10,> 10,> 10
CC1C(=O)CC[C@@]2(C)C(=O)CCCC12O (stereo partly specified),–,> 100,> 100,> 100,> 100,> 100,> 100,> 100,> 100,> 100,> 100,> 100,> 100,> 100,> 100,> 100,> 100,> 100,> 100,–
N#Cc1nc(NC(=O)c2ccccc2)sc1N,> 10,> 10,> 10,> 10,> 10,–,> 10,> 10,> 10,> 10,> 10,> 10,> 10,> 10,> 10,> 10,> 10,> 10,> 10,> 10
CN(C)c1ccc(/C=C2\N=C(c3ccccc3)N(/N=C3\C(=O)Nc4ccccc43)C2=O)cc1,> 100,> 100,> 100,> 100,–,> 100,> 100,> 100,> 100,> 100,> 100,> 100,> 100,> 100,> 100,45.4,> 100,> 100,> 100,> 100
COc1cc2c(cc1OC)CN1CCc3ccccc3CC1C2 (stereo unspecified),> 100,> 100,98.2,23.5,> 100,> 100,> 100,> 100,–,> 100,75.6,> 100,> 100,> 100,> 100,> 100,> 100,–,> 100,> 100
CC(=O)OC(C#N)CC(C)(C)/[N+]([O-])=[N+](\[O-])C(C)(C)CC(C#N)OC(C)=O (stereo unspecified),73.3,95.4,33.9,48.3,55.3,55.2,36.2,–,23.9,63.6,50.2,39.7,26.3,30.3,35.7,33.8,43.8,42.2,35,> 100
CC(C(=O)N1C(=O)N(C(=O)[C@H](C)C(O)c2ccccc2)[C@H](c2ccccc2)[C@H]1c1ccccc1)[C@@H](O)c1ccccc1 (stereo partly specified),> 100,78.3,> 100,> 100,> 100,–,> 100,81.9,> 100,> 100,> 100,93.4,–,60.7,> 100,54.3,> 100,> 100,78.1,–
CCOC(=O)c1nc2cc(C(F)(F)F)ccc2nc1Oc1ccc(C(=O)OC)cc1,> 100,> 100,> 100,> 100,> 100,> 100,–,> 100,> 100,> 100,> 100,> 100,> 100,> 100,> 100,> 100,> 100,> 100,> 100,> 100
COc1ccc2[nH]cc(CN3CCC(CO)(c4ccccc4)CC3)c2c1,> 100,> 100,> 100,52.8,> 100,70.9,58.8,–,35.5,72.2,46.5,24,56.9,38.3,> 100,47.6,> 100,34.8,> 100,75.1
CCN(CC)C(=O)N[C@@H](Cc1ccccc1)C(=O)NC,> 100,> 100,> 100,> 100,> 100,> 100,> 100,–,> 100,> 100,> 100,> 100,> 100,> 100,> 100,> 100,> 100,> 100,> 100,> 100
O=C(/C=C/c1ccc(O)cc1)c1cc(O)cc(O)c1,27.6,29,44.6,–,50.3,> 100,29,26.5,18.1,21.6,33,32.5,45.3,26.7,28.4,38.9,25.2,54.3,–,35.1
Cc1ccc(Nc2cc(=O)[nH]c(=O)[nH]2)cc1CS,> 100,> 100,> 100,> 100,> 100,> 100,> 100,> 100,> 100,> 100,> 100,> 100,> 100,> 100,> 100,> 100,–,> 100,> 100,> 100
C=CCOCn1ccc(NC(=O)c2ccccc2)nc1=O,> 100,–,–,> 100,> 100,> 100,> 100,> 100,> 100,> 100,> 100,> 100,> 100,> 100,> 100,> 100,> 100,> 100,> 100,> 100
